Patent US8946124B2, “Substituted 3-(biphenyl-3-yl)-8,8-difluoro-4-hydroxy-1-azaspiro[4.5]dec-3-en-2-ones for therapy and halogen-substituted spirocyclic ketoenols” (Bayer Intellectual Property GmbH, priority 2011, dated 2015)

What was measured:
[1] = Octanol/water distribution coefficient (log P/D), isocratic HPLC method; type: physicochemical; conditions: pH 7.4; mean (range, n); read-out: logP/D pH 7.4
Excerpt: The distribution coefficient octanol/water P or D is a key parameter for estimating membrane penetration and permeability. It is defined as the ratio of the equilibrium concentrations of a substance in the two-phase system octanol/water.
[formula] P=partition D=distribution c(octanol)=concentration of the substance in the octanol phase c(water)=concentration of the substance in the aqueous phase
It is usually stated in form of the decadic logarithm (log P or log D).
log P describes the distribution behavior of a substance exclusively present in its neutral form. logD describes the distribution behavior of a substance at a certain pH; depending on the ionisation constant pKa of the substance, some of the substance may be present in ionic form, and some in neutral form.
The log P/D of the active compounds was determined using an isocratic HPLC method (HPLC=high performance liquid chromatography) (literature: OECD Guideline for Testing of Chemicals No. 117). The method is based on the correlation of the HPLC retention time of the test substance to that of reference substances with known distribution coefficients.
The test substance was employed as a 10 mM solution in DMSO (DMSO=dimethyl sulfoxide). 10 μl of this solution were made up to 100 μl with a methanol/water mixture in a ratio of 7+3.
The nine reference substances were dissolved individually in methanol. 100 μl each of the stock solutions were added to an HPLC vial and mixed with 300 μl of water.
A formamide solution was used to determine the hold-up time. To this end, 7 mg of formamide were dissolved in 10 ml of methanol. 100 μl of this stock solution were mixed with 500 μl of methanol and 200 μl of water.
All solutions were chromatographed using a flow rate of 1.00 ml/min.
Injection Protocol: formamide, references, test substance 1, test substance 2, . . . , formamide, references.
Evaluation of the retention times was carried out in a diode array detector (DAD) at 200-400 nm. Via the molecular mass, the identity of the test substance was checked using the downstream mass spectrometer.
The HPLC run was evaluated using the Waters software Masslynx 4.1.
The log P/D values were calculated using the software “POW Determination” (proprietary development).

[2] = test system: Spodoptera frugiperda; test: Spodoptera frugiperda test (SPODFR spray treatment); type: in vivo; conditions: 500 g/ha, after 7 days
Excerpt: (§1) Solvents: 78.0 parts by weight of acetone

[3] = test system: Myzus persicae; test: Myzus test (MYZUPE spray treatment); type: in vivo; conditions: 500 g/ha, after 6 days
[4] = test system: Phaedon cochleariae; test: Phaedon test (PHAECO spray treatment); conditions: 500 g/ha, after 7 days
[5] = test system: Tetranychus urticae; test: Tetranychus test, OP-resistant (TETRUR spray treatment); type: in vivo; conditions: after 6 days
Method: as §1
After 6 days, the effect in % is determined.
Tetranychus Test, OP-Resistant (TETRUR Spray Treatment)

[6] = test system: human ACC1; type: biochemical; conditions: pairwise, same substance dilution series
[7] = test system: human plasma protein; test: Plasma protein binding by equilibrium dialysis; type: in vitro ADME
Method: (§2) The binding of test substances to plasma proteins is determined by equilibrium dialysis by means of the Ht-dialysis apparatus (96-well) made of Teflon and a semipermeable membrane (regenerated cellulose, MWCO 12-14K). This separates 150 μl each of a plasma side and a buffer side (50 mM phosphate buffer). The test substance is added in 2 concentrations (usually 3 and 0.3 μM) to the plasma side and binds to plasma proteins. The unbound fraction of the test substance passes through the membrane and is distributed on either side until equilibrium is established (after approx. 6-8 h at 37° C.). The substance concentration on the buffer side and the plasma side is determined by LC-MS analysis. For this, both sides are brought by dilution with buffer or plasma to the same matrix (10% plasma) and then precipitated with methanol. The free (unbound) fraction (fu) is calculated from the quotient of the buffer and plasma concentration. Stability tests and recovery tests are run concurrently as controls. In addition, the substance in buffer is dialysed against buffer, to check the nonspecific binding to apparatus and membrane and establishment of equilibrium. Because during incubation the osmotic pressure of the plasma proteins leads to dilution of the plasma (volume shift), this possible error is determined by weighing blank plasma samples and is included in the calculation of fu. Establishment of equilibrium and plasma stability should have a value not lower than 80% and the recovery should be at least 30%. A free fraction of <1% is regarded as high, between 1 and 10% as moderate and >10% as low plasma protein binding.

[8] = test system: mouse plasma protein; test: Plasma protein binding by equilibrium dialysis; type: in vitro ADME
Method: as §2

[9] = test system: plasma proteins of rat; test: Plasma protein binding by equilibrium dialysis; type: in vitro ADME
Method: as §2

[10] = test system: Meloidogyne incognita; test: Meloidogyne incognita test (MELGIN); type: in vivo; conditions: 20 ppm, after 14 days
Method: Solvent: 125 parts by weight of acetone
Containers are filled with sand, solution of active compound, Meloidogyne incognita egg/larvae suspension and lettuce seeds. The lettuce seeds germinate and the plants develop. On the roots, galls are formed. After 14 days, the nematicidal effect in % is determined by the formation of galls. 100% means that no galls have been found; 0% means that the number of galls on the treated plants corresponds to the untreated control.

[11] = test system: Lucilia cuprina; test: Lucilia cuprina test (LUCICU); type: in vivo; conditions: 100 ppm, after 2 days
Method: (§3) Solvent: dimethyl sulfoxide
To prepare an appropriate active compound formulation, 10 mg of active compound are mixed with 0.5 ml of dimethyl sulfoxide and the concentrate is diluted with water to the desired concentration. Vessels containing horse meat treated with the active compound preparation of the desired concentration are populated with about 20 Lucilia cuprina larvae.
After 2 days, the kill in % is determined.

[12] = test system: Boophilus microplus; test: Boophilus microplus test (BOOPMI injection); type: in vivo; conditions: 20 μg/animal, after 7 days
Method: as §3
To prepare an appropriate active compound formulation, 10 mg of active compound are mixed with 0.5 ml of solvent and the concentrate is diluted with solvent to the desired concentration. The solution of active compound is injected into the abdomen (Boophilus microplus), and the animals are transferred into dishes and kept in a climatized room. The activity is assessed by […] of fertile eggs.
100% means that none of the ticks has laid any fertile eggs.

Row | Compound | chromatographic logD [1] | effect in % (caterpillars killed) [2] [%] | effect in % (aphids killed) [3] [%] | effect in % (beetle larvae killed) [4] [%] | effect in % (spider mites killed) ([5]; 100 g/ha) [%] | further results
1 | Cc1ccc(-c2ccc(Cl)c(F)c2)cc1C1=C(O)C2(CCCCC2)NC1=O [V.1-b, 3-(4′-Chloro-3′-fluoro-4-methylbiphenyl-3-yl)-4-hydroxy-1-azaspiro[4.5]dec-3-en-2-one] | 2.8 | – | – | – | – | –
2 | Cc1ccc(-c2ccc(Cl)cc2)cc1C1=C(O)C2(CCC(F)(F)CC2)OC1=O [Example I-2-a-3] | – | 100 | 90 | 100 | – | –
3 | Cc1cc(Br)cc(C)c1C1=C(O)C2(CCC(F)(F)CC2)NC1=O [Example I-1-a-5] | – | – | 100 | 100 | 100 | –
4 | Cc1ccc(-c2ccc(Cl)cc2)cc1C1=C(O)[C@]2(CC[C@H](C(F)(F)F)CC2)NC1=O [V.2-a, (5s,8s)-3-(4′-Chloro-4-methylbiphenyl-3-yl)-4-hydroxy-8-(trifluoromethyl)-1-azaspiro[4.5]dec-3-en-2-one] | 2.23 | – | – | – | – | Ratio of IC50s ACC2/ACC1 (respective measurement) [6]: 8.4
5 | Cc1ccc(-c2ccc(Cl)cc2)cc1C1=C(O)C2(CCCCC2)NC1=O [V.2-b, 3-(4′-Chloro-4-methylbiphenyl-3-yl)-4-hydroxy-1-azaspiro[4.5]dec-3-en-2-one, reference compound] | 2.77 | – | – | – | – | fu [%] (human) [7]: 0.36%; fu [%] (mouse) [8]: 2.81%; fu [%] (rat) [9]: 0.71%
6 | Cc1ccc(-c2ccc(Cl)cc2)cc1C1=C(O)C2(CCC(F)(F)CC2)NC1=O [Example 1-2, 3-(4′-Chloro-4-methylbiphenyl-3-yl)-8,8-difluoro-4-hydroxy-1-azaspiro[4.5]dec-3-en-2-one] | 1.73 | 100 | 100 | 100 | 100 | fu [%] (human) [7]: 0.42%; fu [%] (mouse) [8]: 3.49%
7 | Cc1ccc(-c2ccc(Cl)c(F)c2)cc1C1=C(O)[C@]2(CC[C@H](C(F)(F)F)CC2)NC1=O [V.1-a, (5s,8s)-3-(4′-Chloro-3′-fluoro-4-methylbiphenyl-3-yl)-4-hydroxy-8-(trifluoromethyl)-1-azaspiro[4.5]dec-3-en-2-one] | 2.55 | – | – | – | – | Ratio of IC50s ACC2/ACC1 (respective measurement) [6]: 8.6
8 | Cc1ccc(-c2ccc(F)cc2)c(C)c1C1=C(O)C2(CCC(F)(F)CC2)NC1=O [Example I-1-a-2] | – | 100 | 100 | 100 | – | effect in % (spider mites killed) ([5]; 500 g/ha): 100%; nematicidal effect in % (formation of galls) [10]: 100%; kill in % [11]: 100%; effect in % (fertile eggs) [12]: 80%
9 | CCc1cc(C)cc(C)c1C1=C(O)C2(CCC(F)(F)CC2)NC1=O [Example I-1-a-11] | – | – | – | – | 100 | –
10 | Cc1ccc(-c2ccc(F)cc2)c(C)c1C1=C(O)C2(CC=C(F)CC2)NC1=O (centres unmarked) [Example I-1-a-12] | – | 100 | 100 | 100 | – | effect in % (spider mites killed) ([5]; 500 g/ha): 100%
11 | Cc1ccc(-c2ccc(Cl)cc2)c(C)c1C1=C(O)C2(CCC(F)(F)CC2)NC1=O [Example 1-5, 3-(4′-Chloro-2,4-dimethylbiphenyl-3-yl)-8,8-difluoro-4-hydroxy-1-azaspiro[4.5]dec-3-en-2-one] | – | – | 100 | – | 90 | nematicidal effect in % (formation of galls) [10]: 100%
12 | Cc1ccc(-c2ccc(F)cc2)c(C)c1C1=C(O)C2(CCC(F)(F)CC2)OC1=O [Example I-2-a-2] | – | 100 | 100 | 100 | – | effect in % (spider mites killed) ([5]; 500 g/ha): 100%
13 | O=C1NC2(CCC(F)(F)CC2)C(O)=C1c1cc(-c2ccc(Cl)cc2)ccc1Cl [Example 1-4, 3-(4,4′-Dichlorobiphenyl-3-yl)-8,8-difluoro-4-hydroxy-1-azaspiro[4.5]dec-3-en-2-one] | – | – | – | – | – | Ratio of IC50s ACC2/ACC1 (respective measurement) [6]: 34.0
14 | Cc1cc(C)c(C2=C(O)C3(CCC(F)(F)CC3)OC2=O)c(C)c1 [Example I-2-a-4] | – | – | 100 | 100 | – | –
15 | Cc1cc(Cl)cc(C)c1C1=C(O)C2(CCC(F)(F)CC2)NC1=O [Example I-1-a-7] | – | – | 100 | 100 | 100 | –
16 | Cc1cc(Cl)cc(C)c1C1=C(O)C2(CC=C(F)CC2)NC1=O (centres unmarked) [Example I-1-a-13] | – | – | 100 | 100 | 90 | –
